Results published in patent publication US6875422B2, “Oral treatment/care agent” (priority 2000, dated 2005).

Settings: used alone
Description: Here, a complete cure was determined by comparing the configuration and properties (hardness and color, in clinical practice) of the periodontium, mobility of the teeth, depth of pockets, hemorrhaging, pus discharge, effusion, bacterial flora within the pocket and the like, against those of a normal person (excepting any dramatic periodontial regeneration such as dramatic bone growth relative to the normal person through this medication alone).

In the case of `C[C@@H]1[C@H](O)[C@@H](C)/C=C/C=C/C=C/C=C/C=C/C=C/C=C/[C@H](O[C@@H]2O[C@H](C)[C@@H](O)[C@H](N)[C@@H]2O)C[C@@H]2O[C@](O)(C[C@@H](O)C[C@@H](O)[C@H](O)CC[C@@H](O)C[C@@H](O)CC(=O)O[C@H]1C)C[C@H](O)[C@H]2C(=O)O` [amphotericin, amphotericin B], the “occurrences on use alone” value is reported as “annual-term occurrences”.
